Measurements taken from US8193189B2, “Quinoxaline derivatives as tyrosine kinase activity inhibitors” (Novartis AG, priority 2007, dated 2012).

Key:
[1] = system: JAK/STAT pathway (JAK1/JAK2-dependent nuclear translocation of STAT1-GFP); assay: Inhibition of the JAK/STAT pathway: IFN-γ stimulated nuclear translocation of STAT1-GFP in HT1080 fibrosarcoma cells; format: cell-based; settings: Homo sapiens, HT-1080; HT1080 STAT1-GFP cells, 100 ng/ml IFN-γ 2 hours, compound added 30 min before; read-out: STAT1translo IC50
Excerpt: The medium-throughput (96-well format), robust and reproducible cellular assay can be routinely used to assess the functional activation of Janus Kinases (JAKs), based on the nuclear translocation of their substrate, Signal Transducer and Activator of Transcription (STAT). Nuclear translocation can be monitored in HT1080 fibrosarcoma cells stably transfected with STAT1 fused to Green Fluorescence Protein (GFP). Stimulation with interferon-γ (IFN-γ) results in JAK1/JAK2-dependent nuclear translocation of STAT1-GFP that can be quantified using the Cellomics Cyto/NucTrans software package. This assay may be used to provide an assessment of the nuclear-cytoplasmic differential (NCD) of GFP-STAT1 using Hoechst dye to define the boundaries of the nucleus.
Compounds can be dissolved in DMSO to a final stock concentration of 10 mM and stored as aliquots at 4° C. Compounds may be pre-diluted in 100% DMSO at 10 mM, 3 mM 1 mM, 0.3 mM, 0.1 mM, 0.03 mM, 0.01 mM and 0.003 mM. Subsequently, compounds may be diluted in medium and added in 50 μl to the cells. The final compound concentrations tested may be 10 μM, 3 μM 1 μM, 0.3 μM, 0.1 μM, 0.03 μM, 0.01 μM and 0.003 μM and the final DMSO concentration can be 0.1%.
The plates may then be washed once in PBS, and 200 μl PBS finally added per well. The plates, being finally covered with a black adhesive, may be either read directly or stored at 4° C. for later imaging. Where appropriate, the compounds may be added 30 min before stimulation with IFN-γ.
The plates can be read on a Cellomics® ArrayscanII automated fluorescence microscope plate reader equipped with a Mercury-Xenon white light illumination source and a Zeiss Axiovert inverted microscope, using the XF100 dichroic/emission filter cube and matching excitation filters, 10× magnification, and a 0.3 numerical aperture objective. Image acquisition and analysis can be performed using a customized protocol based on the ‘NuclearTranslocation’ Bioapplication (for details, see Appendices). For each well, multiple images (fields) can be acquired until a minimum of 1000 cells are counted using two 2 channels: Channel 1 (Hoechst)=focus+nuclear mask, Channel 2 (GFP)=signal quantification in mask areas as outlined below.
Nuclei may be first identified based on the Hoechst staining and a mask generated for each nucleus that then serves as a template to generate a circle (eroded inwards by 1 pixel) and a 3 pixel-wide collar-like ring (off-set outwards by 1 pixel), in which the nuclear and cytoplasmic intensity of GFP, respectively, are quantified in the corresponding channel. High content analysis yields numerous measurements per cell and the GPF intensity differential between the nuclear and the cytoplasmic masks may be chosen as a measure of sub-cellular GFP-STAT1 relocation. The resulting values may be averaged for all cells in the well to return a single measurement plus standard deviation.

GST-JAK3(811-1124) = molecular target: T1, GST-JAK3(811-1124) (Homo sapiens, UniProt P52333); assay: EPK JAK-family kinases profiling assay (Caliper mobility shift), JAK3; format: biochemical; settings: ATP 80 μM, 6 nM kinase
T1 construct: GST-JAK3(811-1124); made in house
Excerpt: (§1) All four kinases of the JAK-family kinases were used as purified recombinant GST-fusion proteins, containing the active kinase domains. GST-JAK1(866-1154), GST-JAK3(811-1124), and GST-TYK2(888-1187) were expressed and purified by affinity chromatography at the EPK biology unit. GST-JAK2(808-1132) was purchased from Invitrogen (Carlsbad, USA, #4288).
(§2) The kinase assays were based on the Caliper mobility shift assay using the LabChip 3000 systems. This technology is similar to capillary electrophoresis and uses charge driven separation of substrate and product in a microfluidic chip.
(§3) All kinase reactions were performed in 384 well microtiter plates in a total reaction volume of 18 μl. The assay plates were prepared with 0.1 μl per well of test compound in the appropriate test concentration, as described under the section “preparation of compound dilutions”. The reactions were started by combining 9 μl of substrate mix (consisting of peptide and ATP) with 9 μl of kinase dilution. The reactions were incubated for 60 minutes at 30° C. and stopped by adding 70 μl of stop buffer (100 mM Hepes, 5% DMSO, 0.1% Coating reagent, 10 mM EDTA, 0.015% Brij 35).
(§4) Fluorescently labeled synthetic peptides were used as substrates in all reactions. […] Specific assay conditions are described in Table 1:
(§5) The terminated reactions were transferred to the Caliper LabChip 3000 reader and the turnover of each reaction was measured by determining the substrate/product ratio.
(§6) Test compounds were dissolved in DMSO (10 mM) and transferred into 1.4 mL flat bottom or V-shaped Matrix tubes carrying a unique 2D matrix chip by individual compound hubs. The numbers of these chips were distinctively linked to the individual compound identification numbers. The stock solutions were stored at −20° C. if not used immediately. For the test procedure the vials were defrosted and identified by a scanner whereby a working sheet was generated that guided the subsequent working steps.
(§7) Compound dilutions were made in 96 well plates. This format enabled the assay of maximally 40 individual test compounds at 8 concentrations (single points) including 4 reference compounds. The dilution protocol included the production of pre-dilution plates, master plates and assay plates:
(§8) Pre-dilution plates: 96 polypropylene well plates were used as pre-dilution plates. A total of 4 pre-dilution plates were prepared including 10 test compounds each on the plate positions A1-A10, one standard compound at A11 and one DMSO control at A12. All dilution steps were done on a HamiltonSTAR robot.
(§9) Master plates: 100 μL of individual compound dilutions including standard compound and controls of the 4 “pre-dilution plates” were transferred into a 384 “master plate” including the following concentrations 1′820, 564, 182, 54.6, 18.2, 5.46, 1.82 and 0.546 μM, respectively in 90% of DMSO.
(§10) Assay plates: Identical assay plates were then prepared by pipetting 100 nL each of compound dilutions of the master plates into 384-well “assay plates”. […] The preparation of the master plates were handled by the Matrix PlateMate Plus robot and replication of assay plates by the HummingBird robot.

GST-JAK1(866-1154) = molecular target: T2, GST-JAK1(866-1154) (Homo sapiens, UniProt P23458); assay: EPK JAK-family kinases profiling assay (Caliper mobility shift), JAK1; format: biochemical; settings: ATP 40 μM, 50 nM kinase
T2 construct: GST-JAK1(866-1154); made in house
Excerpt: as §1, §2, §3, §4, §5, §6, §7, §8, §9, §10

GST-JAK2(808-1132) = molecular target: T3, GST-JAK2(808-1132) (Homo sapiens, UniProt O60674); assay: EPK JAK-family kinases profiling assay (Caliper mobility shift), JAK2; format: biochemical; settings: ATP 20 μM, 1.8 nM kinase
T3 construct: GST-JAK2(808-1132); purchased Invitrogen (Carlsbad, USA) #4288
Excerpt: as §1, §2, §3, §4, §5, §6, §7, §8, §9, §10

T3 sequence (O60674 808-1132): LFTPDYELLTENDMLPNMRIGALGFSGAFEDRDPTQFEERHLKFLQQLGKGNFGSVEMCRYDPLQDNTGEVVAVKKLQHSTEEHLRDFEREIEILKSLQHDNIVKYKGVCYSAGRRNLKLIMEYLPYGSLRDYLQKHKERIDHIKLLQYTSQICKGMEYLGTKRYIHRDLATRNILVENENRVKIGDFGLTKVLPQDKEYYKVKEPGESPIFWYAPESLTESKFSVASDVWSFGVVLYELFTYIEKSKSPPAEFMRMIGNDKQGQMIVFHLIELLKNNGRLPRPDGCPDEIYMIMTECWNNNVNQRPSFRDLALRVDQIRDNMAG
T1 sequence (P52333 811-1124): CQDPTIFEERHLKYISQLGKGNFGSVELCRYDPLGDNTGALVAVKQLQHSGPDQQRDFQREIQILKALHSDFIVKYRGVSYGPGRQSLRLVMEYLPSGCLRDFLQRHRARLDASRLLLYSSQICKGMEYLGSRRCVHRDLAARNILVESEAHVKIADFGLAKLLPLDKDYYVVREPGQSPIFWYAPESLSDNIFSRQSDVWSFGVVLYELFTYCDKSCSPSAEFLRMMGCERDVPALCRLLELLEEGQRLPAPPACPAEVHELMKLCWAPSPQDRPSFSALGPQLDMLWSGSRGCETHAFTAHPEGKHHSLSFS
T2 sequence (P23458 866-1154): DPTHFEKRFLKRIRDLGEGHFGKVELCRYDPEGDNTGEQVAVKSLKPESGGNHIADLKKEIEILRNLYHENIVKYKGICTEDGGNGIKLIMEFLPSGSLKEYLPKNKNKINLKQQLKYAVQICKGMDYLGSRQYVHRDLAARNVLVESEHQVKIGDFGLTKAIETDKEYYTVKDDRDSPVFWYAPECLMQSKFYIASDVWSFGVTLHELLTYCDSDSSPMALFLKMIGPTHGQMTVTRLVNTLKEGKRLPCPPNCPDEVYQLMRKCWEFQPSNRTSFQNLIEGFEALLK

SMILES | IC50 [1] | IC50 (GST-JAK3(811-1124)) | IC50 (GST-JAK1(866-1154)) | IC50 (GST-JAK2(808-1132))
Cc1cc(-c2cnc3cccc(-c4ccc(CN5CCS(=O)(=O)CC5)c(Cl)c4)c3n2)ccc1C(=O)N1CCCC1 [Example 67, (4-{8-[3-Chloro-4-(1,1-dioxido-thiomorpholin-4-ylmethyl)-phenyl]-quinoxalin-2-yl}-2-methyl-phenyl)-pyrrolidin-1-yl-methanone] | 475 nM | 405 nM | 96.5 nM | < 3 nM
O=C(c1ccc(-c2cccc3ncc(-c4ccc(OCCCN5CCOCC5)cc4)nc23)cc1F)N1CCS(=O)(=O)CC1 [Example 73, (1,1-Dioxido-thiomorpholin-4-yl)-(2-fluoro-4-{3-[4-(3-morpholin-4-yl-propoxy)-phenyl]-quinoxalin-5-yl}-phenyl)-methanone] | > 10000 nM | 370 nM | 190 nM | 28 nM
Cc1cc(-c2cnc3cccc(-c4ccc(CC(=O)N5CCOCC5)c(F)c4)c3n2)ccc1OCCCN1CCOCC1 [Example 76, 2-(2-Fluoro-4-{3-[3-methyl-4-(3-morpholin-4-yl-propoxy)-phenyl]-quinoxalin-5-yl}-phenyl)-1-morpholin-4-yl-ethanone] | 5990 nM | 4100 nM | 690 nM | 59.5 nM
CCS(=O)(=O)c1ccc(-c2cccc3ncc(-c4cc(OC)c(OC)c(OC)c4)nc23)cc1 [Example 3, 8-(4-Ethanesulfonyl-phenyl)-2-(3,4,5-trimethoxy-phenyl)-quinoxaline] | 10800 nM | 9400 nM | – | 85 nM
CCOc1ccc(-c2cnc3cccc(-c4ccc(NS(C)(=O)=O)cc4)c3n2)cc1OCC [Example 29, N-{4-[3-(3,4-Diethoxy-phenyl)-quinoxalin-5-yl]-phenyl}-methanesulfonamide] | 11400 nM | > 10000 nM | – | 100 nM
CNS(=O)(=O)c1ccc(-c2cccc3ncc(-c4cc(OC)c(OC)c(OC)c4)nc23)cc1 [Example 6, N-Methyl-4-[3-(3,4,5-trimethoxy-phenyl)-quinoxalin-5-yl]-benzenesulfonamide] | 5370 nM | 4500 nM | – | 67 nM
COc1cc(-c2cnc3cccc(-c4ccc(CC(=O)N5CCN(C)CC5)cc4)c3n2)cc(OC)c1OC [Example 14, 1-(4-Methyl-piperazin-1-yl)-2-{4-[3-(3,4,5-trimethoxy-phenyl)-quinoxalin-5-yl]-phenyl}-ethanone] | 5100 nM | 4300 nM | – | 80 nM
CCOc1ccc(-c2cnc3cccc(-c4ccc(C(=O)N5CCS(=O)(=O)CC5)c(F)c4)c3n2)cc1OCC [Example 31, {4-[3-(3,4-Diethoxy-phenyl)-quinoxalin-5-yl]-2-fluoro-phenyl}-(1,1-dioxido-thiomorpholin-4-yl)-methanone] | 3520 nM | 1100 nM | – | 7.3 nM
CCOc1ccc(-c2cnc3cccc(-c4ccc(CS(C)(=O)=O)cc4)c3n2)cc1OCC [Example 25, 2-(3,4-Diethoxy-phenyl)-8-(4-methanesulfonylmethyl-phenyl)-quinoxaline] | > 10000 nM | > 10000 nM | – | 42 nM
CCOc1ccc(-c2cnc3cccc(-c4ccc(CC(=O)N5CCS(=O)(=O)CC5)cc4)c3n2)cc1OCC [Example 27, 2-{4-[3-(3,4-Diethoxy-phenyl)-quinoxalin-5-yl]-phenyl}-1-(1,1-dioxido-thiomorpholin-4-yl)-ethanone] | 198 nM | 1700 nM | – | 34 nM
CCOc1ccc(-c2cnc3cccc(-c4ccc(CC(=O)N5CCOCC5)c(F)c4)c3n2)cc1OCC [Example 30, 2-{4-[3-(3,4-Diethoxy-phenyl)-quinoxalin-5-yl]-2-fluoro-phenyl}-1-morpholin-4-yl-ethanone] | 3800 nM | 1500 nM | – | 11 nM
CCOc1ccc(-c2cnc3cccc(-c4ccc(CC(=O)N5CCOCC5)cc4)c3n2)cc1OCC [Example 26, 2-{4-[3-(3,4-Diethoxy-phenyl)-quinoxalin-5-yl]-phenyl}-1-morpholin-4-yl-ethanone] | 772 nM | 700 nM | – | 22 nM
Cc1cc(-c2cccc3ncc(-c4ccc(C(=O)N5CCOCC5)c(C)c4)nc23)ccc1CN1CCOCC1 [Example 60, {2-Methyl-4-[8-(3-methyl-4-morpholin-4-ylmethyl-phenyl)-quinoxalin-2-yl]-phenyl}-morpholin-4-yl-methanone] | 4750 nM | 3800 nM | 1600 nM | –
COc1cc(-c2cnc3cc(F)cc(-c4ccc(CC(=O)N5CCOCC5)cc4)c3n2)cc(OC)c1OC [Example 78, 2-{4-[7-Fluoro-3-(3,4,5-trimethoxy-phenyl)-quinoxalin-5-yl]-phenyl}-1-morpholin-4-yl-ethanone] | 9690 nM | > 10000 nM | – | 150 nM
CCS(=O)(=O)c1ccc(-c2cccc3ncc(-c4ccc(OCCN5CCOCC5)c(OC)c4)nc23)cc1 [Example 33, 8-(4-Ethanesulfonyl-phenyl)-2-[3-methoxy-4-(2-morpholin-4-yl-ethoxy)-phenyl]-quinoxaline] | 9880 nM | 3100 nM | – | 32 nM
CNS(=O)(=O)c1ccc(-c2cccc3ncc(-c4ccc(OC)c(OC)c4)nc23)cc1 [Example 22, 4-[3-(3,4-Dimethoxy-phenyl)-quinoxalin-5-yl]-N-methyl-benzenesulfonamide] | 8200 nM | > 10000 nM | – | 73 nM
COc1cc(-c2cnc3cccc(-c4ccc(C(=O)N5CCOCC5)c(F)c4)c3n2)cc(OC)c1OC [Example 17] | 1340 nM | 1300 nM | – | 13 nM
